# Data reported in ChEMBL document CHEMBL4825707, “Quantum mechanical study on the activation mechanism of human carbonic anhydrase VII cluster model with bis-histamine schiff bases and bis-spinaceamine derivatives” (Bioorg Med Chem, 2021).
# Biological target: Carbonic anhydrase 7 (Homo sapiens) (UniProt P43166)
# Assay: Activation of human carbonic anhydrase VII by stopped flow CO2 hydrase assay
# Conditions: Brain, filed as activator
# Carbonic anhydrase 7 (Homo sapiens), sequence (P43166 whole entry): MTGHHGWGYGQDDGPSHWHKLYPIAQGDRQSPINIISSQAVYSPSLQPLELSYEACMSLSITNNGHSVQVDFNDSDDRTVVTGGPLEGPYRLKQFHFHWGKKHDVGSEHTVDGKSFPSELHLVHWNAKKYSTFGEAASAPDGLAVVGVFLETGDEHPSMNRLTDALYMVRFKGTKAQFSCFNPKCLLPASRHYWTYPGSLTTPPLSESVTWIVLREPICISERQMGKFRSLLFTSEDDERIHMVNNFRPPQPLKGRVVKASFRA
row,SMILES,Ka [µM]
1,c1nc2c([nH]1)C(c1ccc(C3NCCc4nc[nH]c43)o1)NCC2 (stereo not drawn),0.035
2,c1cc(C2NCCc3nc[nH]c32)cc(C2NCCc3nc[nH]c32)c1 (stereo not drawn),0.039
3,C(=N\CCc1c[nH]cn1)/c1ccc(/C=N/CCc2c[nH]cn2)cc1,9.02
4,C(=N/CCc1c[nH]cn1)/c1ccccc1/C=N/CCc1c[nH]cn1,21.3
5,c1nc2c([nH]1)C(c1ccc(C3NCCc4nc[nH]c43)cc1)NCC2 (stereo not drawn),0.032

# The next lines start with the values.
row,Ka [µM],SMILES
1,0.085,C(=N/CCc1c[nH]cn1)/c1ccc(/C=N/CCc2c[nH]cn2)o1
2,37.6,NCCc1c[nH]cn1
3,18.7,C(=N/CCc1c[nH]cn1)/c1cccc(/C=N/CCc2c[nH]cn2)c1
